Measured values as given in ChEMBL document CHEMBL4819047, “Discovery of a new class of multi-target heterocycle piperidine derivatives as potential antipsychotics with pro-cognitive effect” (Bioorg Med Chem Lett, 2021).

Tests used:
[1] = mouse, in vivo, po
Description: Induction of catalepsy in po dosed mouse by Horizontal grid and elevated bar test

Mus musculus [2] = species: Mus musculus; assay: animal or person; settings: po
Description: Antipsychotic activity in po dosed mouse assessed as suppression of apomorphine-induced climbing behaviour

Rattus norvegicus = species: Rattus norvegicus; assay: animal or person; settings: po
Description: Antipsychotic activity in po dosed rat assessed as suppression in conditioned avoidance response by CAR test

Mus musculus [3] = species: Mus musculus; assay: animal or person; settings: po; remark: listed apart in the source
Description: Antipsychotic activity in po dosed mouse assessed as reduction in MK-801-induced hyperlocomotor activity

[4] = Therapeutic index, ratio of ED50 for induction of catalepsy in po dosed mouse to ED50 for antipsychotic activity in po dosed mouse assessed as suppression of apomorphine-induced climbing; type: toxicity, organism-based; settings: in vivo, read-out: Ratio ED50
[5] = Therapeutic index, ratio of ED50 for induction of catalepsy in po dosed mouse to ED50 for antipsychotic activity in po dosed mouse assessed as reduction in MK-801-induced hyperlocomotor activity; type: toxicity, organism-based; settings: in vivo, read-out: Ratio ED50
[6] = target: T1, 5-hydroxytryptamine receptor 1A (Homo sapiens, UniProt P08908); assay: Antagonist activity at 5-HT1A receptor (unknown origin); type: functional
T1 sequence (P08908 whole entry): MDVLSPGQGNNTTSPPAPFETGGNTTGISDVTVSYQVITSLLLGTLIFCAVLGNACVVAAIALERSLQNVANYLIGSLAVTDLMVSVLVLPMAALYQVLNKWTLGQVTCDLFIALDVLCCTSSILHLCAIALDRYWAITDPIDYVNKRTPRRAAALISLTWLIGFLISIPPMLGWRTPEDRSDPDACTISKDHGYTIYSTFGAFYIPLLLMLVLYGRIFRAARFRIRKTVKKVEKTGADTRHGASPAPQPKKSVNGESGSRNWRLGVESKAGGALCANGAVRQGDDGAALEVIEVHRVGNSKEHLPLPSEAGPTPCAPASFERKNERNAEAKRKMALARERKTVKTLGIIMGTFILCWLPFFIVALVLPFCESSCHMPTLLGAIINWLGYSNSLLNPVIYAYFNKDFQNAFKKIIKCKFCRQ

[7] = target: T2, 5-hydroxytryptamine receptor 2A (Homo sapiens, UniProt P28223)
T2 sequence (P28223 whole entry): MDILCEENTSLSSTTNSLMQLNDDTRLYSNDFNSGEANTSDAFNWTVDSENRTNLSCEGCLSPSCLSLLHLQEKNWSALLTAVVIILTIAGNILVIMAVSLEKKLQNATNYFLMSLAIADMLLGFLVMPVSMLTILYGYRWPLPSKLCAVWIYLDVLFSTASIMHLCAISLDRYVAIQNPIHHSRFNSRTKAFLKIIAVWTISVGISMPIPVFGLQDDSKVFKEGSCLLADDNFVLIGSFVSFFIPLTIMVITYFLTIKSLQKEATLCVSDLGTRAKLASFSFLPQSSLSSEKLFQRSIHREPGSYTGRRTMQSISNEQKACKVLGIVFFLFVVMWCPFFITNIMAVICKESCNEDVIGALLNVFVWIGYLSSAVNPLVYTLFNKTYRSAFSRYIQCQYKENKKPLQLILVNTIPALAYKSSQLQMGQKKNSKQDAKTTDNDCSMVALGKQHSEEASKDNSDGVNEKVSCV

Histamine H1 receptor = Histamine H1 receptor (Homo sapiens, UniProt P35367); type: ADME
Sequence of Histamine H1 receptor (P35367 whole entry): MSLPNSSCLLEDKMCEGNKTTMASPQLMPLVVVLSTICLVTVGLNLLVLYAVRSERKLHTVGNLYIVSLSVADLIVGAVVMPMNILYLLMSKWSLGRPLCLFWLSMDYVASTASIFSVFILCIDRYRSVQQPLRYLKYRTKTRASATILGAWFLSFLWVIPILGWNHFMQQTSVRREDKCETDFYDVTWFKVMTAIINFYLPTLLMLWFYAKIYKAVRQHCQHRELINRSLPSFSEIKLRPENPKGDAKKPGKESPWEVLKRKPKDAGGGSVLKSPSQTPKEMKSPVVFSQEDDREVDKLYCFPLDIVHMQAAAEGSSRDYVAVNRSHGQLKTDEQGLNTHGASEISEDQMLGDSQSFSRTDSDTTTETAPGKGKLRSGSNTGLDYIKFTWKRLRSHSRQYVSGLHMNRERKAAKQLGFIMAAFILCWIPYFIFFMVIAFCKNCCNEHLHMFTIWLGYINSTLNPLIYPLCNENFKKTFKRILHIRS
Description: Binding affinity to histamine H1 receptor (unknown origin)

[8] = target: T2, 5-hydroxytryptamine receptor 2A; assay: Antagonist activity at 5-HT2A receptor (unknown origin); type: functional
D(2) dopamine receptor [9] = target: T3, D(2) dopamine receptor (Homo sapiens, UniProt P14416)
T3 sequence (P14416 whole entry): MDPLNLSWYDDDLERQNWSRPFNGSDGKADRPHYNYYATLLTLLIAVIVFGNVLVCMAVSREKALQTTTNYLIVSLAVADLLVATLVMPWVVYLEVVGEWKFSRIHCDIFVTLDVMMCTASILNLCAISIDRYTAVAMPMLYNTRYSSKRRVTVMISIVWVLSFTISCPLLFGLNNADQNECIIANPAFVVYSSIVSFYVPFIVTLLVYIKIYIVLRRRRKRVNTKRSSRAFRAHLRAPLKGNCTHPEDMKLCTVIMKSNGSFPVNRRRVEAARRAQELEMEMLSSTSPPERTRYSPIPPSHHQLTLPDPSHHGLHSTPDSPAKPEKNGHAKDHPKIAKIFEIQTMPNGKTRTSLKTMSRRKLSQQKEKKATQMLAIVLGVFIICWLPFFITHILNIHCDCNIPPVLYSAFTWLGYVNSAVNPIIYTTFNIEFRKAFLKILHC
Description: Binding affinity to dopamine D2 receptor (unknown origin)

[10] = target: T1, 5-hydroxytryptamine receptor 1A
D(2) dopamine receptor [11] = target: T3, D(2) dopamine receptor; assay: Antagonist activity at D2 receptor (unknown origin); type: functional
[12] = target: T4, Alpha-1A adrenergic receptor (Homo sapiens, UniProt P35348)
T4 sequence (P35348 whole entry): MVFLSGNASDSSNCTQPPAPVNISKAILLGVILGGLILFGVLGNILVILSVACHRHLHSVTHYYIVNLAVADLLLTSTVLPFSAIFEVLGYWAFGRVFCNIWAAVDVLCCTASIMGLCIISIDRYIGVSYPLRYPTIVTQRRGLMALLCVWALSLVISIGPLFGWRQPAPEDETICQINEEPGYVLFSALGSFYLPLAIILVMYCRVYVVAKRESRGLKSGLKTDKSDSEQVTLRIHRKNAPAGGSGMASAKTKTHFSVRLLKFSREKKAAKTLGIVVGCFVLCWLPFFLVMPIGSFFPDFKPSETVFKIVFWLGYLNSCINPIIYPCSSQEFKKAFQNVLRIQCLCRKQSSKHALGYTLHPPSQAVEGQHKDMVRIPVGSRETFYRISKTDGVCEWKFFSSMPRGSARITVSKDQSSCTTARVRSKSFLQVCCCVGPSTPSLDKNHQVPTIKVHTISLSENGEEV
Description: Binding affinity to alpha1 adrenoceptor (unknown origin)

[13] = target: Voltage-gated inwardly rectifying potassium channel KCNH2 (Homo sapiens, UniProt Q12809)
Sequence of Voltage-gated inwardly rectifying potassium channel KCNH2 (Q12809 whole entry): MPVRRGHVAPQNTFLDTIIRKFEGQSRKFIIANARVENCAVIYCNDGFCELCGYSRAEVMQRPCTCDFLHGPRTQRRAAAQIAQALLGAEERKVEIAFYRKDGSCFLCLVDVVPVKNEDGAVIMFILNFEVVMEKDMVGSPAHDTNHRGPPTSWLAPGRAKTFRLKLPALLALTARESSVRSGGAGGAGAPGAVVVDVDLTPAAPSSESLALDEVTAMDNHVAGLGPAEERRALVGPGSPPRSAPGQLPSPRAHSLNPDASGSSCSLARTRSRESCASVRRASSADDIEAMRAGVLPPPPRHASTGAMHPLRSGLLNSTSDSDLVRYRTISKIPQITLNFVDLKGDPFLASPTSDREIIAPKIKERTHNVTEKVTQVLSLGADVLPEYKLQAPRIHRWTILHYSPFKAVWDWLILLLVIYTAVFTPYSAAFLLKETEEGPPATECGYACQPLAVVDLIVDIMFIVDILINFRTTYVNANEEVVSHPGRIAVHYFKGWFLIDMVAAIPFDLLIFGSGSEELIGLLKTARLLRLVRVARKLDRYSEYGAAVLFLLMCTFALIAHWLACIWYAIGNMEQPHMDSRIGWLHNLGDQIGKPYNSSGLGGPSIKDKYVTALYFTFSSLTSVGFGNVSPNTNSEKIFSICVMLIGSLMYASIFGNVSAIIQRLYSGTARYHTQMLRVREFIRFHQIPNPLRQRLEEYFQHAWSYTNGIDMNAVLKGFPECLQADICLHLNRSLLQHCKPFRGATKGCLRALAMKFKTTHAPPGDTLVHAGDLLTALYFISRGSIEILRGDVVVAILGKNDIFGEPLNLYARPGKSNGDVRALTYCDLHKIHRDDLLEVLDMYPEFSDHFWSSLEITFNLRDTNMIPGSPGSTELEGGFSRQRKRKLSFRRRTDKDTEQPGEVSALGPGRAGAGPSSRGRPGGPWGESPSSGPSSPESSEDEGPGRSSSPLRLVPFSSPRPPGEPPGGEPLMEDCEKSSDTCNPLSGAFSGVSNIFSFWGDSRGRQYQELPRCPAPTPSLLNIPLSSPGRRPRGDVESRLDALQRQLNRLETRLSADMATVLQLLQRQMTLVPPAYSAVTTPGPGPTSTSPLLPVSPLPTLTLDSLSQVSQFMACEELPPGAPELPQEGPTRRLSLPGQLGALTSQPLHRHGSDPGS
Description: Inhibition of human ERG by automated patch method relative to control

[14] = target: T5, 5-hydroxytryptamine receptor 2C (Homo sapiens, UniProt P28335)
T5 sequence (P28335 whole entry): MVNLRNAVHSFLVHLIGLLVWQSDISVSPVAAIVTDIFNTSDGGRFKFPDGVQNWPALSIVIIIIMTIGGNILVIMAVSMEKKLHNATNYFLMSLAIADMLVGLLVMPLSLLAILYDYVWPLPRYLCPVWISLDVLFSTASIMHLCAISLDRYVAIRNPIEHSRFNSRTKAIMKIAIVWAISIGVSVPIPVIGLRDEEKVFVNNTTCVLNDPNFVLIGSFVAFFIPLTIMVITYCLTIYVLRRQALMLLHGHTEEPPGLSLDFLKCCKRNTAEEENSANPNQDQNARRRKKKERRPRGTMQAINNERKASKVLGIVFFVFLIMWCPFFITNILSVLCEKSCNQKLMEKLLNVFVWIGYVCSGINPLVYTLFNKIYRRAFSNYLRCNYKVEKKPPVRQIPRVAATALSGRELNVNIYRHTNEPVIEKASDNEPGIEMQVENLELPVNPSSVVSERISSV

[15] = target: 5-hydroxytryptamine receptor 6 (Homo sapiens, UniProt P50406)
Sequence of 5-hydroxytryptamine receptor 6 (P50406 whole entry): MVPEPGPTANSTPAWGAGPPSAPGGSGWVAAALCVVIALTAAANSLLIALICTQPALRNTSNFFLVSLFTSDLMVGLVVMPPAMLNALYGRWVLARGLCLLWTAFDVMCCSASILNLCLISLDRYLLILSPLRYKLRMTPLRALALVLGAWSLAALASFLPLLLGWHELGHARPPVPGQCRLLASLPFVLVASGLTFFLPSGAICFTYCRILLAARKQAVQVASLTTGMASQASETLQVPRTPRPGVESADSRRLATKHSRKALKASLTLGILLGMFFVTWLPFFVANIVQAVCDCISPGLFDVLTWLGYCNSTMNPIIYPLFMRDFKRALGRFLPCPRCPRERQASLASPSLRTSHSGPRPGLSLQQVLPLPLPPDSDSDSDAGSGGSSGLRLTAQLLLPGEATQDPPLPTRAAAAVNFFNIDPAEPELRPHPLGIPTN

Histamine H3 receptor = Histamine H3 receptor (Homo sapiens, UniProt Q9Y5N1)
Sequence of Histamine H3 receptor (Q9Y5N1 whole entry): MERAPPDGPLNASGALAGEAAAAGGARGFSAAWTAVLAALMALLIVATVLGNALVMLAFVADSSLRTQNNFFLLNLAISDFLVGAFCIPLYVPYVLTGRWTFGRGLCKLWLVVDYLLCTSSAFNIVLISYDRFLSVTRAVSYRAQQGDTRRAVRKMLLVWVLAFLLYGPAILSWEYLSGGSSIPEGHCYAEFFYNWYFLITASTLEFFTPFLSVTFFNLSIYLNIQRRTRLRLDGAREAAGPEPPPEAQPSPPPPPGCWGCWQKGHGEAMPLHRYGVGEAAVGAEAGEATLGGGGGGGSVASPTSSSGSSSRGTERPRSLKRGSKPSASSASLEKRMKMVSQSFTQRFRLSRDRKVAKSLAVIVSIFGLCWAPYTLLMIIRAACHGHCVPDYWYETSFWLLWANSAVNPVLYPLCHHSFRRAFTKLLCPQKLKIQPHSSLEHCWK
Description: Binding affinity to histamine H3 receptor (unknown origin)

D(3) dopamine receptor = D(3) dopamine receptor (Homo sapiens, UniProt P35462)
Sequence of D(3) dopamine receptor (P35462 whole entry): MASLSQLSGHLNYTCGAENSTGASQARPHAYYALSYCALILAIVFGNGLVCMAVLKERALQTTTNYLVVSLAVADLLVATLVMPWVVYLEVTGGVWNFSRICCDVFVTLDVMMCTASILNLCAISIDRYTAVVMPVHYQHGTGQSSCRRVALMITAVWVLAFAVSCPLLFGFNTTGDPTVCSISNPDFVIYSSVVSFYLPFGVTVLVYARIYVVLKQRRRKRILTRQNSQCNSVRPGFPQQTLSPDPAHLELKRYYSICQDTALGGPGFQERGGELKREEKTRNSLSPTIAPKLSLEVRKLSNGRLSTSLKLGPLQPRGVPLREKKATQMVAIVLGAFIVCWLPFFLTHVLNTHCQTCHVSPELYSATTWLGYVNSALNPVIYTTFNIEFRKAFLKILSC
Description: Binding affinity to dopamine D3 receptor (unknown origin)

SMILES	Ki [7] [nM]	Ki (D(2) dopamine receptor [9]) [nM]	Ki [10] [nM]	Ki (Histamine H3 receptor) [nM]	other results
Cc1nc2n(c(=O)c1CCN1CCC(c3noc4cc(F)ccc34)CC1)CCCC2 [RISPERIDONE]	–	–	–	–	ED50 [1]: 1.6 mg/kg; ED50 (Mus musculus [2]): 0.02 mg/kg; ED50 (Rattus norvegicus): 0.6 mg/kg; ED50 (Mus musculus [3]): 0.04 mg/kg
O=C(CCCN1CCC(O)(c2ccc(Cl)cc2)CC1)c1ccc(F)cc1 [HALOPERIDOL]	–	–	–	–	selectivity ratio [4]: 3.6; ED50 [1]: 0.3 mg/kg; ED50 (Mus musculus [2]): 0.09 mg/kg; ED50 (Mus musculus [3]): 0.1 mg/kg; selectivity ratio [5]: 2.9
Fc1ccc2c(C3CCN(CCCOc4ccc(CCN5CCOCC5)cc4)CC3)noc2c1	8.4	10.5	5.6	–	IC50 [6]: 247 nM; Ki (Histamine H1 receptor): 968 nM; IC50 [8]: 186 nM; IC50 (D(2) dopamine receptor [11]): 11.3 nM; Ki [12]: 438 nM; IC50 [13]: 2410 nM; Ki [14]: 610 nM; Ki [15]: 141 nM
Fc1ccc2c(C3CCN(CCCOc4ccc(CN5CCOCC5)cc4Cl)CC3)noc2c1	5.7	2.5	105	149	–
CN1CCN(CCc2ccc(OCCCN3CCC(c4noc5cc(F)ccc45)CC3)cc2)CC1	8.6	–	16.4	271	–
Fc1ccc2c(C3CCN(CCCOc4ccc(CCN5CCCCC5)cc4)CC3)noc2c1	9.4	9.7	7.4	13.4	Ki (Histamine H1 receptor): 1020 nM; Ki (D(3) dopamine receptor): 15.2 nM; Ki [12]: 536 nM; IC50 [13]: 2290 nM; Ki [14]: 753 nM; Ki [15]: 149 nM
O=c1ccc(OCCCN2CCC(c3noc4cc(F)ccc34)CC2)nn1-c1c(F)cccc1F	0.3	5	5.9	–	Ki (Histamine H1 receptor): 2000 nM; Ki (D(3) dopamine receptor): 35.7 nM; Ki [12]: 337 nM; Ki [14]: 1580 nM
COc1cc(CN2CCCC2)ccc1OCCCN1CCC(c2noc3cc(F)ccc23)CC1	10.8	6.2	77.9	151	–
Fc1ccc2c(C3CCN(CCCOc4ccc(CN5CCCC5)cc4)CC3)noc2c1	8.6	12.2	81.6	93.7	–
Cc1cc(OCCCN2CCC(c3noc4cc(F)ccc34)CC2)ccc1CN1CCOCC1	5.1	3.1	100	164	–
COc1cc(CN2CCCCC2)ccc1OCCCN1CCC(c2noc3cc(F)ccc23)CC1	9	9.5	67.7	256	–
O=C(CCCN1CCC(c2noc3cc(F)ccc23)CC1)c1cc2c3c(c1)CCN3C(=O)CC2	0.7	2.9	8.6	–	Ki (Histamine H1 receptor): 630 nM; Ki (D(3) dopamine receptor): 1.7 nM; Ki [12]: 43.1 nM; Ki [14]: 616 nM; Ki [15]: 5.6 nM
Fc1ccc2c(C3CCN(CCCOc4ccc(CN5CCOCC5)cc4)CC3)noc2c1	4.4	1.5	85.5	166	–
Fc1ccc2c(C3CCN(CCCOc4ccc(CN5CCCCC5)c(F)c4)CC3)noc2c1	6.2	11.6	92.1	312	–
